Test results: the supplement of paper PMC10307832

Tests used:
Assay in all cases: relative viability (nuclei count vs DMSO), 5 days (fraction); higher = more cells survive
[1] = tested on: HARA
Outline: (§1)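 A single step with final 0.05% Triton X-100, 1% formaldehyde and 1 ug/ml Hoechst fixed the cells and stained nuclei 5 days after treatment. Lung cancer cell lines in 1536-well plates had been treated by pin tool the day after seeding with one drug alone or a fixed anchor-drug dose plus five library-drug doses (not always all listed) in √10 steps, and nuclei were counted on 4× images. Relative viability is the ratio of nuclei in treated wells to nuclei in vehicle wells, taken as the median of duplicate plates.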

[2] = tested on: NCI-H2170
Outline: as §1

[3] = tested on: A-427
Outline: as §1

[4] = tested on: SK-MES-1
Outline: as §1

[5] = tested on: NCI-H2009
Outline: as §1

[6] = tested on: NCI-H2228
Outline: as §1

[7] = tested on: SW 1573
Outline: as §1

[8] = tested on: NCI-H1993
Outline: as §1

[9] = tested on: NCI-H522
Outline: as §1

[10] = tested on: LK-2
Outline: as §1

[11] = tested on: NCI-H322M
Outline: as §1

[12] = tested on: HOP-62
Outline: as §1

[13] = tested on: NCI-H1792
Outline: as §1

[14] = tested on: ABC-1
Outline: as §1

[15] = tested on: LXF-289
Outline: as §1

[16] = tested on: SW 900
Outline: as §1

[17] = tested on: EMC-BAC-2
Outline: as §1

[18] = tested on: NCI-H727
Outline: as §1

[19] = tested on: NCI-H1944
Outline: as §1

[20] = tested on: NCI-H3122
Outline: as §1

[21] = tested on: PC-3 [JPC-3]
Outline: as §1

Question: How did the relative viability ([1]; first compound 0.08 µM) turn out when COc1nc(C)cnc1NS(=O)(=O)c1cccnc1-c1ccc(-c2nnco2)cc1 [Zibotentan] + CC(=O)c1c(C)c2cnc(Nc3ccc(N4CCNCC4)cn3)nc2n(C2CCCC2)c1=O [Palbociclib] (partner 0.5 µM) was run?
Answer: 0.297

Question: What about the relative viability ([1]; first compound 0.253 µM) of the same compound?
Answer: 0.226

Question: And the relative viability ([1]; first compound 0.8 µM)?
Answer: 0.27

Question: What about the relative viability ([1]; first compound 2.53 µM) of the same compound?
Answer: 0.258

Question: And the relative viability ([2]; first compound 0.08 µM)?
Answer: 0.389

Question: What about the relative viability ([2]; first compound 0.253 µM) of the same compound?
Answer: 0.369

Question: And the relative viability ([2]; first compound 0.8 µM)?
Answer: 0.403

Question: What about the relative viability ([2]; first compound 2.53 µM) of the same compound?
Answer: 0.371

Question: What about the relative viability ([3]; first compound 0.08 µM) of the same compound?
Answer: 0.514

Question: What about the relative viability ([3]; first compound 0.253 µM) of the same compound?
Answer: 0.515

Question: And the relative viability ([3]; first compound 0.8 µM)?
Answer: 0.519

Question: And the relative viability ([3]; first compound 2.53 µM)?
Answer: 0.559

Question: What about the relative viability ([4]; first compound 0.08 µM) of the same compound?
Answer: 0.309

Question: What about the relative viability ([4]; first compound 0.253 µM) of the same compound?
Answer: 0.284

Question: What about the relative viability ([4]; first compound 0.8 µM) of the same compound?
Answer: 0.35

Question: What about the relative viability ([4]; first compound 2.53 µM) of the same compound?
Answer: 0.362

Question: And the relative viability ([5]; first compound 0.08 µM)?
Answer: 0.188

Question: What about the relative viability ([5]; first compound 0.253 µM) of the same compound?
Answer: 0.169

Question: And the relative viability ([5]; first compound 0.8 µM)?
Answer: 0.205

Question: What about the relative viability ([5]; first compound 2.53 µM) of the same compound?
Answer: 0.212

Question: What about the relative viability ([6]; first compound 0.08 µM) of the same compound?
Answer: 0.762

Question: And the relative viability ([6]; first compound 0.253 µM)?
Answer: 0.654

Question: And the relative viability ([6]; first compound 0.8 µM)?
Answer: 0.821

Question: And the relative viability ([6]; first compound 2.53 µM)?
Answer: 0.897

Question: What about the relative viability ([7]; first compound 0.08 µM) of the same compound?
Answer: 0.421

Question: What about the relative viability ([7]; first compound 0.8 µM) of the same compound?
Answer: 0.385

Question: And the relative viability ([7]; first compound 2.53 µM)?
Answer: 0.363

Question: What about the relative viability ([8]; first compound 0.08 µM) of the same compound?
Answer: 0.661

Question: What about the relative viability ([8]; first compound 0.253 µM) of the same compound?
Answer: 0.712

Question: And the relative viability ([8]; first compound 0.8 µM)?
Answer: 0.537

Question: And the relative viability ([8]; first compound 2.53 µM)?
Answer: 0.662

Question: And the relative viability ([9]; first compound 0.08 µM)?
Answer: 0.981

Question: What about the relative viability ([9]; first compound 0.253 µM) of the same compound?
Answer: 0.823

Question: And the relative viability ([9]; first compound 0.8 µM)?
Answer: 0.919

Question: What about the relative viability ([9]; first compound 2.53 µM) of the same compound?
Answer: 0.855

Question: And the relative viability ([10]; first compound 0.08 µM)?
Answer: 0.609

Question: And the relative viability ([10]; first compound 0.253 µM)?
Answer: 0.544

Question: What about the relative viability ([10]; first compound 0.8 µM) of the same compound?
Answer: 0.62

Question: And the relative viability ([10]; first compound 2.53 µM)?
Answer: 0.609

Question: And the relative viability ([11]; first compound 0.08 µM)?
Answer: 0.465

Question: What about the relative viability ([11]; first compound 0.253 µM) of the same compound?
Answer: 0.408

Question: What about the relative viability ([11]; first compound 0.8 µM) of the same compound?
Answer: 0.49

Question: And the relative viability ([11]; first compound 2.53 µM)?
Answer: 0.521

Question: What about the relative viability ([12]; first compound 0.08 µM) of the same compound?
Answer: 0.47

Question: And the relative viability ([12]; first compound 0.253 µM)?
Answer: 0.431

Question: What about the relative viability ([12]; first compound 0.8 µM) of the same compound?
Answer: 0.518

Question: And the relative viability ([12]; first compound 2.53 µM)?
Answer: 0.451

Question: What about the relative viability ([13]; first compound 0.08 µM) of the same compound?
Answer: 0.77

Question: What about the relative viability ([13]; first compound 0.253 µM) of the same compound?
Answer: 0.551

Question: And the relative viability ([13]; first compound 0.8 µM)?
Answer: 0.525

Question: What about the relative viability ([13]; first compound 2.53 µM) of the same compound?
Answer: 0.578

Question: And the relative viability ([14]; first compound 0.08 µM)?
Answer: 0.603

Question: And the relative viability ([14]; first compound 0.253 µM)?
Answer: 0.475

Question: And the relative viability ([14]; first compound 0.8 µM)?
Answer: 0.664

Question: And the relative viability ([14]; first compound 2.53 µM)?
Answer: 0.676

Question: What about the relative viability ([15]; first compound 0.08 µM) of the same compound?
Answer: 0.577

Question: And the relative viability ([15]; first compound 0.253 µM)?
Answer: 0.55

Question: What about the relative viability ([15]; first compound 0.8 µM) of the same compound?
Answer: 0.592

Question: What about the relative viability ([15]; first compound 2.53 µM) of the same compound?
Answer: 0.61

Question: What about the relative viability ([16]; first compound 0.08 µM) of the same compound?
Answer: 0.541

Question: And the relative viability ([16]; first compound 0.253 µM)?
Answer: 0.565

Question: And the relative viability ([16]; first compound 0.8 µM)?
Answer: 0.487

Question: And the relative viability ([16]; first compound 2.53 µM)?
Answer: 0.564

Question: And the relative viability ([17]; first compound 0.08 µM)?
Answer: 0.532

Question: And the relative viability ([17]; first compound 0.8 µM)?
Answer: 0.546

Question: What about the relative viability ([17]; first compound 2.53 µM) of the same compound?
Answer: 0.503

Question: And the relative viability ([18]; first compound 0.08 µM)?
Answer: 0.623

Question: And the relative viability ([18]; first compound 0.253 µM)?
Answer: 0.667

Question: What about the relative viability ([18]; first compound 0.8 µM) of the same compound?
Answer: 0.73

Question: And the relative viability ([18]; first compound 2.53 µM)?
Answer: 0.658

Question: And the relative viability ([19]; first compound 0.08 µM)?
Answer: 0.366

Question: What about the relative viability ([19]; first compound 0.253 µM) of the same compound?
Answer: 0.301

Question: What about the relative viability ([19]; first compound 0.8 µM) of the same compound?
Answer: 0.333

Question: And the relative viability ([19]; first compound 2.53 µM)?
Answer: 0.39

Question: And the relative viability ([20]; first compound 0.08 µM)?
Answer: 0.186

Question: And the relative viability ([20]; first compound 0.253 µM)?
Answer: 0.177

Question: What about the relative viability ([20]; first compound 0.8 µM) of the same compound?
Answer: 0.154

Question: And the relative viability ([20]; first compound 2.53 µM)?
Answer: 0.18

Question: What about the relative viability ([21]; first compound 0.08 µM) of the same compound?
Answer: 0.556

Question: What about the relative viability ([21]; first compound 0.253 µM) of the same compound?
Answer: 0.548

Question: What about the relative viability ([21]; first compound 0.8 µM) of the same compound?
Answer: 0.537

Question: What about the relative viability ([21]; first compound 2.53 µM) of the same compound?
Answer: 0.581
